The values below come from patent US20200022967A1, “Use of 2-carboxamide cycloamino urea derivatives in the treatment of EGFR dependent diseases or diseases that have acquired resistance to agents that target EGFR family members” (Novartis AG, priority 2010, published 2020).

In data set [1] the test system is BT-474 tumors. The data set can be described thus: BT474 orthotopic breast cancer xenograft, antitumor activity (Example 1). Type of data set: in vivo, mice. As to the method:
(§1) Experiments were performed in female HsdNpa:Athymic Nude-nu mice approximately 8-12 weeks of age at treatment start. All animals were housed under Optimized Hygienic conditions in Makrolon type III cages (max. 10 animals per cage) with free access to food and water.
BT-474 cells, which are human breast ductal carcinoma cells and ErbB2 amplified with a PIK3CA mutation K111N, were grown in DMEM culture medium containing 4.5 g/l glucose supplemented with 10% heat-inactivated FCS, 2 mM L-glutamine, 1 mM sodium pyruvate and incubated at 37° C. in a 5% CO2 humidified atmosphere. Cell culture reagents were purchased from BioConcept (Allschwil, Switzerland).
BT-474 tumors were established in vivo by injection 3×10^6 cells in 30 μl HBSS (Sigma # H8264) containing 1 mg/ml Matrigel (BD #34234) orthotopically into the 3rd mammary gland on the right side of the animals. The efficacy experiments started when the tumors reached an average size of approximately 130 mm^3 (day 14-16 post cell injection). The PK/PD experiment was performed when the tumors reached a size of 150-250 m m^3 (day 22 after cell injection). On the day of cell injection, a 0.025 17β Estradiol pellent has been implanted subcutaneously on the left flank into each experimental animal under Forene® inhalation narcosis.
The Compound was fully dissolved in NMP. Then, PEG300 and liquified Solutol were added (in sequence with vortexing after addition of each reagent). Water was added immediately prior to administration to the animals. Compound A or vehicle was administered orally at a volume of 10 ml/kg.
(§2) Tumor volumes were measured with calipers and determined according to the formula: length×diameter^2×π/6. […] Regressions (%) were calculated according to the formula ((mean tumor volume at end of treatment-mean tumor volume at start of treatment)/mean tumor volume at start of treatment)×100. Body weights and tumor volumes were recorded twice a week.
(§3) Where applicable, data is presented as mean±SEM. For all tests, the level of significance was set at p<0.05. For tumor volumes, comparisons between treatment groups and vehicle control group were done using one-way ANOVA followed by Dunnett's test. The level of significance of body weight change within a group between the start and the end of the treatment period was determined using a paired t-test. Comparisons of delta body weights between treatment and vehicle control groups were performed by a one-way ANOVA followed by a post hoc Dunnett's test.
In the first experiment, Compound A was orally administered daily to BT-474 orthotopic xenografts, tumor-bearing nude mice at a dose of 50 mg/kg. […] Compound A administered orally at 50 mg/kg once daily produces a mean tumor change of tumor volume of −29.7±15.6 mm^3 (p<0.01, ANOVA and post-hoc Dunnett's) as compared to vehicle (mean tumor change of 315.1±16.4 mm^3), with a 23.0% regression in the first experiment.
In a second experiment, Compound A was orally administered daily to BT-474 orthotopic xenografts, tumor-bearing nude mice at doses of 12.5, 25 and 50 mg/kg. […] (See FIG. 1). Compound A administered orally at 12.5, 25 and 50 mg/kg once daily produces a mean change of tumor volume of 171.8±33.0 mm^3 (p<0.01, ANOVA and post-hoc Dunnett's), 95.5±26.5 mm^3 (p<0.01, ANOVA and post-hoc Dunnett's), and 20.8±15.9 mm^3 (p<0.01, ANOVA and post-hoc Dunnett's) respectively as compared to vehicle (mean change of tumor volume of 557.7±79.0 mm^3) in the second experiment. (See FIG. 3)

A short description of data set [2]: Body weight change in BT474 xenograft mice (Example 1). Type of data set: in vivo. The conditions noted are these: for mean body weight change: not significant; for mean change of body weight: 50 mg/kg p.o. once daily, p<0.05. As for the experimental part:
as §2, §3

Data set [3] concerns NCI-N87 tumors. The data set can be described thus: NCI-N87 subcutaneous gastric cancer xenograft, antitumor activity (Example 2). Type of data set: in vivo, mice. The note with it: 50 mg/kg p.o. once daily. As to the method: as §1
NCI-N87 cells (obtained from the American Type Culture Collection), which are of gastric origin and ErbB2 amplified, were grown in DMEM culture medium containing 4.5 g/l glucose supplemented with 10% heat-inactivated FCS, 2 mM L-glutamine, and 1 mM sodium pyruvate. The cells were incubated at 37° C. in a 5% CO2 humidified atmosphere. Cells were harvested with trypsin (0.25% w/v)-EDTA (0.53 mM), re-suspended in culture medium (with additives) and counted with a Casy® system. Cell culture reagents were purchased from BioConcept (Allschwil, Switzerland).
NCI-N87 tumors were established from fragments of approximately 40 mg implanted subcutaneously into the female HsdNpa:Athymic Nude-nu mice with a trocar needle. Treatment started when the tumors reached a size of approximately 110 mm^3, 25 days post implantation.
The Compound was fully dissolved in NMP. Then, PEG300 and liquified Solutol were added (in sequence with vortexing after addition of each reagent). Water was added immediately prior to administration to the animals.
as §2
Where applicable, data is presented as mean±SEM. For all tests, the level of significance was set at p<0.05. For tumor volumes, comparisons between treatment groups and vehicle control group were done using one-way ANOVA followed by Dunnett's test. The level of significance of body weight change within a group between the start and the end of the treatment period was determined using a paired t-test. […]

A short description of data set [4]: Body weight in BT474 combination study (Example 3). Type of data set: in vivo, mice. The note with it: Compound A 50 mg/kg p.o. daily, single agent; significant. As to the method:
as §2, §3

A short description of data set [5]: Body weight nadir and deaths in NCI-N87 trastuzumab study (Example 4). Type of data set: in vivo, mice. The text has this:
Treatments started 9 days post tumor cell implantation and lasted for 30 consecutive days (or until tumor volume=2000 mm^3).

[6] abbreviates: Group 3: Compound A 25 mg/kg p.o. once daily.
The mark [7] stands for this setting: Group 4: Compound A 50 mg/kg p.o. once daily.

Consider `Cc1nc(NC(=O)N2CCC[C@H]2C(N)=O)sc1-c1ccnc(C(C)(C)C(F)(F)F)c1` [Compound A, (S)-Pyrrolidine-1,2-dicarboxylic acid 2-amide 1-({4-methyl-5-[2-(2,2,2-trifluoro-1,1-dimethyl-ethyl)-pyridin-4-yl]-thiazol-2-yl}-amide)], for which the “antitumor effect as compared to vehicle” value in data set [1] (12.5, 25 and 50 mg/kg p.o. once daily, p<0.05 ANOVA) was “statistically significant antitumor effect”; in data set [3] (p<0.05 ANOVA), “statistically significant antitumor effect”. The regression in data set [1] (first experiment, 50 mg/kg p.o. once daily) is on record as 23.0%; in data set [3] it was 11%. Moreover, the “mean change of tumor volume” value in data set [1] (first experiment, 50 mg/kg p.o. once daily, vehicle 315.1±16.4) is listed as −29.7±15.6 mm^3; in data set [1] (second experiment, 12.5 mg/kg p.o. once daily, vehicle 557.7±79.0) it was 171.8±33.0 mm^3; in data set [1] (second experiment, 25 mg/kg p.o. once daily, vehicle 557.7±79.0) it was 95.5±26.5 mm^3; in data set [1] (second experiment, 50 mg/kg p.o. once daily, vehicle 557.7±79.0), 20.8±15.9 mm^3; in data set [3] (vehicle 694.0±93.5), −11.8±17.2 mm^3. In addition, the “mean body weight change” value in data set [2] (12.5 mg/kg p.o. once daily) is listed as 1.4±1.2%; in data set [2] (25 mg/kg p.o. once daily), −1.2±1.2%. The “mean change of body weight” value in data set [2] (first of the two experiments) is 10.6±4.1%; in data set [2] (second of the two experiments), 8.2±2.6%. Moreover, in data set [4], the body weight loss result is recorded as “about 12%”. For the same compound, the “Deaths (TR/NTR)” value in data set [5] (Group 2 (8 animals): Compound A 12.5 mg/kg p.o. once daily) is 0. Besides, the “Mean BW Nadir (lowest group mean BW)” value in data set [5] (Group 2: Compound A 12.5 mg/kg p.o. once daily, Day 22) is given as −7% (Day 22); in data set [5] (Group 3: Compound A 25 mg/kg p.o. once daily, Day 26) it was −12.2% (Day; in data set [5] (Group 4: Compound A 50 mg/kg p.o. once daily, Day 12), −13.1% (Day. Further, the “Deaths NTR = non-treatment related” value in data set [5] (setting [6]) was “NTR: 1”; in data set [5] (setting [7]) it was “NTR: 0”. Further, the results for the “Deaths TR = treatment-related” value in data set [5] (setting [6]) and in data set [5] (setting [7]) were “TR: 1” and “TR: 4”, respectively.
